This note sets out measurements from PubChem BioAssay (NCI).

Values joined by “and” are separate entries in the source; they are usually repeats but may differ in a detail not shown here. Identical values can stand only once.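 48-hour exposure; five concentrations; linearly interpolated endpoints. Abbreviation: GI50, concentration required for 50% inhibition of growth. TGI denotes the concentration required for complete inhibition of growth.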 Some results are limits rather than exact numbers.

Common to all, as to test: inhibition of tumour cell growth, NCI panel, 48 h
For test [1], the system named is CCRF-CEM leukemia.
Test [2] deals with EKVX NSCLC.
The subject of test [3] is KM12 colon.
Test [4] deals with LOX IMVI melanoma.
For test [5], the system named is MCF7 breast.
For test [6], the system named is RXF 393 renal.
Test [7] has as its system SK-MEL-2 melanoma.
In test [8] the test system is SK-OV-3 ovarian.
Test [9] has as its system SR leukemia.
Test [10] has as its system SW-620 colon.
For test [11], the system named is U251 CNS.
The subject of test [12] is UACC-62 melanoma.

Turning to `CC(=O)O[C@H]1[C@H](OC(C)=O)[C@@H](CN=[N+]=[N-])OCO[C@@H]1CN=[N+]=[N-]`, the TGI in [1], in test [2], in test [3], in [4], in test [5] and in test [6] was greater than 100 µM each time. For the same molecule, the TGI in test [7], in test [8], in test [9], in test [10], in [11] and in test [12] was greater than 100 µM in each case.

With `Cc1cc(C)nc(NS(=O)(=O)c2ccc(NNC(=O)c3cccc4c(NNc5ccc(S(=O)(=O)Nc6nc(C)cc(C)n6)cc5)c5ccccc5nc34)cc2)n1`, the TGI is 51.2 µM in test [1]; 40.5 µM in test [2]; 35.6 µM in [3]; 31.3 µM in test [4]; 62.4 µM in [5]; 48.7 µM in test [6]. The TGI amounted to 57.5 µM in [7]; 87.1 µM in test [8]; 53.1 µM in test [9]; 48.3 µM in [10]; 46.6 µM in test [11]; 58.7 µM in test [12].

`COc1ccc(N2CCN(Cc3c(C(C)=O)[n+](=O)c4ccccc4n3[O-])CC2)cc1`: the TGI in [1] was greater than 100 µM; in test [2] it was greater than 100 µM; in test [3] it was greater than 100 µM; in [4], greater than 100 µM; in [5] it was greater than 100 µM; in [6] it was 83.4 µM. The TGI in test [7], in test [8], in test [9], in test [10], in [11] and in test [12] was greater than 100 µM throughout.

Turning to `CCCN1CN(c2ccccc2)C2(CCN(CCCC(=O)c3ccc(F)cc3)CC2)C1=O`, the TGI in test [1] came out at 5.16 µM; in test [2] it was 54.2 µM; in [3], 31 µM; in test [4] it was 17.1 µM; in test [5], 11.9 µM; in test [6] it was 37 µM. For the same molecule, the TGI was 25 µM in [7]; 43.1 µM in [8]; 41.4 µM in [9]; 20.4 µM in test [10]; 30.7 µM in test [11]; 31.3 µM in test [12].

On to `COc1cc(/C=C/c2sc3ccccc3[n+]2C)ccc1N(C)C`, for which the GI50 in [1] is 3.76 µM; in [3], 10.1 µM; in [5] it was 6.78 µM; in test [7], 12.4 µM; in test [9], 6.85 µM; in test [11], 8.06 µM. Besides, the GI50 in [12] is 10.4 µM. Also, the TGI in test [1] was 13.9 µM; in [2] it was greater than 100 µM; in test [3] it was 21.7 µM; in test [4] it was 31.9 µM; in [5], 19.5 µM; in [6], 33.5 µM. For the same molecule, the TGI in test [7] is 8.31 µM and 29.3 µM; in test [8] it was 54.8 µM; in test [9], 7.71 µM and 36.3 µM; in [10], 25.8 µM; in test [11], 21.8 µM; in test [12], 22.4 µM.

For `CC(=O)N1CC[N+](C)(CCCCN2c3ccccc3Sc3cc(N=[N+]=[N-])ccc32)CC1`, the TGI in [1], in test [2], in [3], in test [4], in test [5] and in test [6] was greater than 100 µM in each case. Further, the TGI in [7], in test [8], in test [9], in test [10], in [11] and in [12] was greater than 100 µM each time.

For the molecule `COCC(=O)OC1CCn2c1nc1c2C(=O)C(C)=C(NC(C)=O)C1=N` (centres undefined), the TGI in [1] turned out to be 8.27 µM; in [2] it was 25.3 µM; in test [3], 38.2 µM; in test [4] it was 6.04 µM; in test [5], 3.52 µM; in test [6], 6.47 µM. Also, the TGI in test [7] stood at 6.09 µM; in [8] it was 37.5 µM; in test [9], 7.52 µM; in [10], 6.12 µM; in [11] it was 17.9 µM; in test [12], 3.34 µM.

Take `COc1ccc(C(=O)/C=C/c2ccc(OCC(=O)O)cc2)cc1`: the TGI in test [1], in test [2], in [3], in [4], in test [5] and in [6] was greater than 100 µM each time. Moreover, the TGI in test [7] is greater than 100 µM; in test [9] it was greater than 100 µM; in [10], greater than 100 µM; in test [11] it was 79.9 µM; in [12] it was greater than 100 µM.

Regarding `O=c1c[n+](-c2ccccc2)[nH]o1`, the TGI in test [1], in [2], in [3], in test [4], in test [5] and in test [6] was greater than 100 µM each time. The TGI in test [7], in test [8], in [9], in [10], in test [11] and in test [12] was greater than 100 µM in each case.

For `CC(=O)OCC1OC(n2c3c(cc(C#N)c2=S)CCCCCC3)C(OC(C)=O)C(OC(C)=O)C1OC(C)=O` (centres undefined), the TGI in test [1] is greater than 100 µM; in [3], greater than 100 µM; in test [4], 49.8 µM; in [5] it was greater than 100 µM; in test [6] it was greater than 100 µM; in test [7], greater than 100 µM. Further, the TGI in test [9], in [11] and in test [12] was greater than 100 µM each time.

As to `CC(C)/C(Cl)=N\OC(=O)Nc1ccc(F)c([N+](=O)[O-])c1`, the TGI in test [2] was 26.5 µM; in [3], 28.5 µM; in test [4] it was 10.7 µM; in [5], greater than 58.1 µM; in test [6] it was 33 µM; in [7], 29.9 µM. For the same molecule, the TGI in test [8] is 34 µM; in test [9], 26.3 µM; in [10] it was 7.56 µM; in test [11] it was 31.1 µM; in test [12] it was 39.1 µM.
